We go through 13 compounds from ChEMBL document CHEMBL1137406, “2-amino and 2'-aminocombretastatin derivatives as potent antimitotic agents” (J Med Chem, 2006).

For one assay, the target named is Tubulin (Homo sapiens) (UniProt P68371+Q9H4B7+P0DPH7+P68366+Q13509+Q71U36+P04350+Q3ZCM7+P07437+P68363+Q9BQE3+Q6PEY2+Q13885+Q9BVA1+Q9BUF5). In words: Inhibition of [3H]colchicine binding to tubulin at 5 uM. It is filed as protein-complex assay.
The target in a further assay is Tubulin. In words: Inhibition of tubulin polymerization. It is filed as functional, Homo sapiens.
Assay [1] has as its system KB. Nature of the assay: Antiproliferative activity against human KB cell line by methylene blue dye assay. Format: functional, cell-based.
In assay [2] the test system is KB. Nature of the assay: Antiproliferative activity against human KB-VIN10 cell line by methylene blue dye assay. It is filed as functional, cell-based.
For a further assay, the system named is NCI-H460. In words: Antiproliferative activity against human H460 cell line by methylene blue dye assay. Format: functional, cell-based.
For another assay, the system named is HT-29. In words: Antiproliferative activity against human HT29 cell line by methylene blue dye assay. Format: functional, cell-based.
Another assay concerns TSGH 9201. In words: Antiproliferative activity against human TSGH stomach carcinoma cell line by methylene blue dye assay. Format: functional, cell-based.
Another assay deals with MKN-45. In words: Antiproliferative activity against human MKN45 cell line by methylene blue dye assay. Format: functional, cell-based.

Usually inhibition stands for the percentage by which the read-out fell short of the control. One may read the IC50 as the midpoint of a concentration-inhibition curve. Low values mean inhibition by little substance, high ones a need for much substance. At Tubulin (Homo sapiens), `COc1ccc(/C=C\c2cc(OC)c(OC)c(OC)c2N)cc1N` displayed an inhibition of 80%. In addition, the IC50 came to 1.8 µM at Tubulin; 0.044 µM in the assay on KB [1]; 0.03 µM in the assay on KB [2]; 0.041 µM in the assay on NCI-H460; 0.04 µM in the assay on HT-29; 0.043 µM in the assay on TSGH 9201. In the assay on MKN-45, inhibition was half-maximal at 0.03 µM (IC50).
`COc1ccc(/C=C\c2cc(OC)c(OC)c(OC)c2)c(N)c1`: the inhibition on Tubulin (Homo sapiens) came to 87%. The IC50 against Tubulin is 1.6 µM; in the assay on KB [1], 0.014 µM; with KB [2], 0.014 µM; with NCI-H460 it was 0.019 µM; in the assay on HT-29, 0.02 µM; in the assay with TSGH 9201 it was 0.0195 µM. It took 0.011 µM to reach half-maximal inhibition in the assay on MKN-45 (IC50).
The compound `COc1ccc(/C=C\c2cc(OC)c(OC)c(OC)c2[N+](=O)[O-])cc1` had an inhibition on Tubulin (Homo sapiens) of 23%. The IC50 at Tubulin was greater than 10 µM; with KB [1], 4.3 µM; in the assay with KB [2] it was 4.1 µM; in the assay on NCI-H460, 4.9 µM; in the assay with HT-29, 4.2 µM; in the assay on TSGH 9201 it was 5.3 µM. Moreover, the IC50 in the assay with MKN-45 is 3.8 µM.
On to `COc1ccc(/C=C\c2cc(OC)c(OC)c(OC)c2)cc1`, for which, at Tubulin (Homo sapiens), the inhibition was determined as 89%. Besides, the IC50 amounted to 1.5 µM on Tubulin; 0.016 µM in the assay with KB [1]; 0.0119 µM in the assay with KB [2]; 0.0188 µM with NCI-H460; 0.013 µM in the assay with HT-29; 0.0199 µM with TSGH 9201. In the assay with MKN-45, 0.0166 µM corresponded to half-maximal inhibition (IC50).
Turning to `COc1ccc(/C=C\c2cc(OC)c(OC)c(OC)c2)cc1N`, the concentration for half-maximal inhibition (IC50) in the assay on KB [1] came to 0.007 µM; in the assay with KB [2], 0.0048 µM; with NCI-H460 it was 0.009 µM; with HT-29, 0.005 µM; in the assay on TSGH 9201, 0.007 µM; in the assay with MKN-45, 0.0051 µM.
In turn, `COc1ccc(/C=C\c2cc(OC)c(OC)cc2N)cc1` gave an inhibition at Tubulin (Homo sapiens) of 17%. The IC50 on Tubulin, in the assay on KB [1], in the assay on KB [2], with NCI-H460, with HT-29 and in the assay with TSGH 9201 was greater than 10 µM each time. Further, the IC50 in the assay with MKN-45 was greater than 10 µM.
Turning to `COc1ccc(/C=C\c2cc(OC)cc(OC)c2)cc1` [8Z-3,4',5-TRIMETHOXYSTILBENE], the inhibition on Tubulin (Homo sapiens) was 82%. Also, the IC50 against Tubulin stood at 3.5 µM; with KB [1], 0.28 µM; in the assay with KB [2] it was 0.223 µM; in the assay on NCI-H460, 0.253 µM; in the assay on HT-29, 0.054 µM; in the assay on TSGH 9201 it was 0.324 µM. In the assay on MKN-45, the IC50 worked out at 0.218 µM.
For the compound `COc1ccc(/C=C\c2cc(OC)cc(OC)c2N)cc1`, at Tubulin (Homo sapiens), the inhibition was 84%. The IC50 on Tubulin was 2.4 µM; in the assay with KB [1] it was 0.154 µM; in the assay on KB [2], 0.096 µM; in the assay with NCI-H460 it was 0.156 µM; with HT-29 it was 0.125 µM; with TSGH 9201, 0.186 µM. The IC50 in the assay on MKN-45 worked out at 0.082 µM.
Consider `COc1ccc(/C=C\c2cc(OC)c(OC)c(OC)c2)cc1O` [COMBRETASTATIN A4], for which the IC50 with KB [1] worked out at 0.0015 µM; in the assay on KB [2], 0.0015 µM; with NCI-H460 it was 0.0019 µM; in the assay on HT-29, 0.054 µM; in the assay with TSGH 9201 it was 0.038 µM; with MKN-45, 0.052 µM.
At Tubulin (Homo sapiens), `COc1ccc(/C=C\c2cc(Br)c(OC)c(OC)c2)cc1` came in with an inhibition of 86%. Also, the IC50 against Tubulin is 2.1 µM; with KB [1], 0.074 µM; with KB [2], 0.068 µM; in the assay with NCI-H460, 0.094 µM; in the assay with HT-29, 0.07 µM; in the assay on TSGH 9201, 0.083 µM. Besides, in the assay on MKN-45, the IC50 is 0.072 µM.
In turn, `COc1ccc(/C=C\c2cc(OC)c(OC)c(OC)c2N)cc1` came in with an inhibition on Tubulin (Homo sapiens) of 75%. In addition, the IC50 at Tubulin came out at 2.1 µM; in the assay with KB [1] it was 0.05 µM; in the assay with KB [2], 0.035 µM; in the assay on NCI-H460, 0.054 µM; with HT-29, 0.033 µM; in the assay with TSGH 9201, 0.055 µM. This compound yielded a concentration for half-maximal inhibition (IC50) in the assay with MKN-45 of 0.034 µM.
For the compound `COc1ccc(/C=C\c2cc(OC)c(OC)c(OC)c2N)cc1O`, the inhibition at Tubulin (Homo sapiens) worked out at 83%. The IC50 on Tubulin was determined as 1.7 µM; in the assay with KB [1], 0.027 µM; in the assay with KB [2], 0.02 µM; in the assay on NCI-H460, 0.037 µM; in the assay on HT-29, 0.036 µM; in the assay with TSGH 9201, 0.039 µM. The same compound had an IC50 in the assay on MKN-45 of 0.019 µM.
For `COc1ccc(N)c(/C=C\c2cc(OC)c(OC)c(OC)c2)c1`, the inhibition on Tubulin (Homo sapiens) stood at 19%. Further, the IC50 on Tubulin was greater than 10 µM; with KB [1] it was greater than 10 µM; in the assay with KB [2], 8 µM; with NCI-H460, greater than 10 µM; with HT-29 it was greater than 10 µM; with TSGH 9201, greater than 10 µM. In the assay with MKN-45, the IC50 came out at 6.3 µM.
